# Biological target: Human cGAS amino acids 155-522 (Homo sapiens (Human), UniProt Q8N884)
# Experiment: cGAS biochemical activity assay (ATP remaining, Kinase-Glo Max luminescence)
# Details: human cGAS 155-522, ATP remaining (Kinase-Glo Max); read-out: cGAS IC50
# Chain of Human cGAS amino acids 155-522 (Q8N884 157-522): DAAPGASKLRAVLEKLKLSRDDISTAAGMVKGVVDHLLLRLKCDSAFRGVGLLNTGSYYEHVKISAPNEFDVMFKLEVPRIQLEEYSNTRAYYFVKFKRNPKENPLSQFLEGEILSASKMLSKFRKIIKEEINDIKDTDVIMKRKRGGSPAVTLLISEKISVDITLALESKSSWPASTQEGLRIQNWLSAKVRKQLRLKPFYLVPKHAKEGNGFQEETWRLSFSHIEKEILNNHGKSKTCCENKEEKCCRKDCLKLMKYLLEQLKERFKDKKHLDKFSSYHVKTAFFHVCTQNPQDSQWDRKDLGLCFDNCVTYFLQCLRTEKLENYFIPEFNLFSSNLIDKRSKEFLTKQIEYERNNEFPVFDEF
row,SMILES,IC50 [µM]
1,"CCc1cccc2oc(-c3c(C)[nH]c4c(-c5ccccc5)c(C(F)(F)F)nn4c3=O)nc12 [Compound C1046, 6-(4-ethylbenzo[d]oxazol-2-yl)-5-methyl-3-phenyl-2-(trifluoromethyl)pyrazolo[1,5-a]pyrimidin-7(4H)-one]",< 20
2,"Cc1[nH]c2c(-c3ccccc3)c(C(F)(F)F)nn2c(=O)c1-c1nnc(-c2ccco2)o1 [Compound D1007, 6-(5-(furan-2-yl)-1,3,4-oxadiazol-2-yl)-5-methyl-3-phenyl-2-(trifluoromethyl)pyrazolo[1,5-a]pyrimidin-7(4H)-one]",> 250
3,"COc1cccc(NC(=O)c2c(C)[nH]c3c(-c4ccccc4)c(C(F)(F)F)nn3c2=O)c1 [Compound A1032, N-(3-methoxyphenyl)-5-methyl-7-oxo-3-phenyl-2-(trifluoromethyl)-4,7-dihydropyrazolo[1,5-a]pyrimidine-6-carboxamide]",< 20
4,"COCCOCc1[nH]c2c(-c3ccccc3)c(C#N)nn2c(=O)c1-c1nc2c(OC)cccc2o1 [Compound C1243, 6-(4-methoxybenzo[d]oxazol-2-yl)-5-((2-methoxyethoxy)methyl)-7-oxo-3-phenyl-4,7-dihydropyrazolo[1,5-a]pyrimidine-2-carbonitrile]",< 20
5,"Cc1[nH]c2c(-c3ccccc3)c(C(F)(F)F)nn2c(=O)c1-c1nnc(N2CCCC(O)C2)o1 (centres unmarked) [Compound D1087, 6-(5-(3-hydroxypiperidin-1-yl)-1,3,4-oxadiazol-2-yl)-5-methyl-3-phenyl-2-(trifluoromethyl)pyrazolo[1,5-a]pyrimidin-7(4H)-one]",20 to 250
6,"Cc1[nH]c2c(-c3ccccc3)c(C(F)(F)F)nn2c(=O)c1N1Cc2ccc(N)cc2C1=O [Compound C1217, 6-(6-amino-1-oxoisoindolin-2-yl)-5-methyl-3-phenyl-2-(trifluoromethyl)pyrazolo[1,5-a]pyrimidin-7(4H)-one]",20 to 250
7,"Cc1[nH]c2c(-c3ccccc3)c(C(F)(F)F)nn2c(=O)c1-c1nnc(-c2cccnc2O)o1 [Compound D1067, 6-(5-(2-hydroxypyridin-3-yl)-1,3,4-oxadiazol-2-yl)-5-methyl-3-phenyl-2-(trifluoromethyl)pyrazolo[1,5-a]pyrimidin-7(4H)-one]",< 20
8,"COc1cccc2oc(-c3c(C(=O)N4CCC[C@@H]4CO)[nH]c4c(-c5ccccc5)c(C(F)(F)F)nn4c3=O)nc12 [Compound C1207, (R)-5-(2-(hydroxymethyl)pyrrolidine-1-carbonyl)-6-(4-methoxybenzo[d]oxazol-2-yl)-3-phenyl-2-(trifluoromethyl)pyrazolo[1,5-a]pyrimidin-7(4H)-one]",20 to 250
9,"Cc1[nH]c2c(-c3ccccc3)c(C(F)(F)F)nn2c(=O)c1C(=O)Nc1ccc(C#N)cc1 [Compound A1015, N-(4-cyanophenyl)-5-methyl-7-oxo-3-phenyl-2-(trifluoromethyl)-4,7-dihydropyrazolo[1,5-a]pyrimidine-6-carboxamide]",20 to 250
10,"Cc1[nH]c2c(-c3ccccc3)c(C(F)(F)F)nn2c(=O)c1C1=N[C@H](C(=O)O)CO1 [Compound C1192, (S)-2-(5-methyl-7-oxo-3-phenyl-2-(trifluoromethyl)-4,7-dihydropyrazolo[1,5-a]pyrimidin-6-yl)-4,5-dihydrooxazole-4-carboxylic acid]",< 20
11,"COc1nc(NC(C)=O)nc2oc(-c3c(C)[nH]c4c(-c5ccccc5)c(C(F)(F)F)nn4c3=O)nc12 [Compound C1150, N-(7-methoxy-2-(5-methyl-7-oxo-3-phenyl-2-(trifluoromethyl)-4,7-dihydropyrazolo[1,5-a]pyrimidin-6-yl)oxazolo[5,4-d]pyrimidin-5-yl)acetamide]",20 to 250
12,"Cc1[nH]c2c(-c3ccccc3)c(C(F)(F)F)nn2c(=O)c1C(=O)Nc1ccccc1N1CCCCC1 [Compound A1055, 5-methyl-7-oxo-3-phenyl-N-(2-(piperidin-1-yl)phenyl)-2-(trifluoromethyl)-4,7-dihydropyrazolo[1,5-a]pyrimidine-6-carboxamide]",20 to 250
13,"Cc1[nH]c2c(-c3ccccc3)c(C(F)(F)F)nn2c(=O)c1C(N)=O [Compound A1140, 5-methyl-7-oxo-3-phenyl-2-(trifluoromethyl)-4,7-dihydropyrazolo[1,5-a]pyrimidine-6-carboxamide]",20 to 250
14,"COCC1CCCCN1c1nnc(-c2c(C)[nH]c3c(-c4ccccc4)c(C(F)(F)F)nn3c2=O)o1 (centres unmarked) [Compound D1060, 6-(5-(2-(methoxymethyl)piperidin-1-yl)-1,3,4-oxadiazol-2-yl)-5-methyl-3-phenyl-2-(trifluoromethyl)pyrazolo[1,5-a]pyrimidin-7(4H)-one]",20 to 250
15,"COc1cccc2oc(-c3c(C)[nH]c4c(-c5ccccc5)nnn4c3=O)nc12 [Compound E1001, 6-(4-methoxybenzo[d]oxazol-2-yl)-5-methyl-3-phenyl-[1,2,3]triazolo[1,5-a]pyrimidin-7(4H)-one]",< 20
16,"COc1cccc(NC(=O)c2c(C)[nH]c3c(-c4ccccc4)c(C(F)(F)F)nn3c2=O)c1OC [Compound A1043, N-(2,3-dimethoxyphenyl)-5-methyl-7-oxo-3-phenyl-2-(trifluoromethyl)-4,7-dihydropyrazolo[1,5-a]pyrimidine-6-carboxamide]",20 to 250
17,"COc1cccc2c1nc(-c1c(C)[nH]c3c(-c4ccccc4)c(C(F)(F)F)nn3c1=O)n2CCO [Compound C1201, 6-(1-(2-hydroxyethyl)-4-methoxy-1H-benzo[d]imidazol-2-yl)-5-methyl-3-phenyl-2-(trifluoromethyl)pyrazolo[1,5-a]pyrimidin-7(4H)-one]",20 to 250
18,"Cc1ccccc1NC(=O)c1c(C)[nH]c2c(-c3ccccc3)c(C(F)(F)F)nn2c1=O [Compound A1037, 5-methyl-7-oxo-3-phenyl-N-(o-tolyl)-2-(trifluoromethyl)-4,7-dihydropyrazolo[1,5-a]pyrimidine-6-carboxamide]",20 to 250
19,"Cc1[nH]c2c(-c3ccccc3)c(C(F)(F)F)nn2c(=O)c1C(=O)Nc1ccc(Cl)cc1 [Compound A1016, N-(4-chlorophenyl)-5-methyl-7-oxo-3-phenyl-2-(trifluoromethyl)-4,7-dihydropyrazolo[1,5-a]pyrimidine-6-carboxamide]",20 to 250
20,"Cc1[nH]c2c(-c3ccccc3)c(C(F)(F)F)nn2c(=O)c1C(=O)Nc1ccc(S(C)(=O)=O)cn1 [Compound A1108, 5-methyl-N-(5-(methylsulfonyl)pyridin-2-yl)-7-oxo-3-phenyl-2-(trifluoromethyl)-4,7-dihydropyrazolo[1,5-a]pyrimidine-6-carboxamide]",20 to 250
21,"COc1ccccc1NC(=O)c1c[nH]c2c(-c3ccccc3)c(C(F)(F)F)nn2c1=O [Compound A1057, N-(2-methoxyphenyl)-7-oxo-3-phenyl-2-(trifluoromethyl)-4,7-dihydropyrazolo[1,5-a]pyrimidine-6-carboxamide]",20 to 250
22,"Cc1[nH]c2c(-c3ccccc3)c(C(F)(F)F)nn2c(=O)c1C(=O)N[C@@H]1CCCC[C@H]1N [Compound A1014, N-((1R,2R)-2-aminocyclohexyl)-5-methyl-7-oxo-3-phenyl-2-(trifluoromethyl)-4,7-dihydropyrazolo[1,5-a]pyrimidine-6-carboxamide]",20 to 250
23,"COc1cccc2oc(-c3c(COC4CCN(C)C4=O)[nH]c4c(-c5ccccc5)c(C(F)(F)F)nn4c3=O)nc12 (centres unmarked) [Compound C1225, 6-(4-methoxybenzo[d]oxazol-2-yl)-5-(((1-methyl-2-oxopyrrolidin-3-yl)oxy)methyl)-3-phenyl-2-(trifluoromethyl)pyrazolo[1,5-a]pyrimidin-7(4H)-one]",< 20
24,"COc1ccc(-c2nnc(-c3c(C)[nH]c4c(-c5ccccc5)c(C(F)(F)F)nn4c3=O)o2)cc1 [Compound D1002, 6-(5-(4-methoxyphenyl)-1,3,4-oxadiazol-2-yl)-5-methyl-3-phenyl-2-(trifluoromethyl)pyrazolo[1,5-a]pyrimidin-7(4H)-one]",> 250
25,"COc1cccc2oc(-c3c(C)[nH]c4c(-c5ccccc5)c(C5CC5)nn4c3=O)nc12 [Compound C1242, 2-cyclopropyl-6-(4-methoxybenzo[d]oxazol-2-yl)-5-methyl-3-phenylpyrazolo[1,5-a]pyrimidin-7(4H)-one]",> 250
26,"COc1cncc(NC(=O)c2c(C)[nH]c3c(-c4ccccc4)c(C(F)(F)F)nn3c2=O)c1 [Compound A1094, N-(5-methoxypyridin-3-yl)-5-methyl-7-oxo-3-phenyl-2-(trifluoromethyl)-4,7-dihydropyrazolo[1,5-a]pyrimidine-6-carboxamide]",< 20
27,"COc1cccc2oc(-c3c(C)[nH]c4c(-c5c(F)cccc5F)c(C(F)(F)F)nn4c3=O)nc12 [Compound C1133, 3-(2,6-difluorophenyl)-6-(4-methoxybenzo[d]oxazol-2-yl)-5-methyl-2-(trifluoromethyl)pyrazolo[1,5-a]pyrimidin-7(4H)-one]",20 to 250
28,"COc1cccc2oc(-c3c(C)[nH]c4c(-c5ccccc5)c(=O)[nH]n4c3=O)nc12 [Compound C1049, 6-(4-methoxybenzo[d]oxazol-2-yl)-5-methyl-3-phenylpyrazolo[1,5-a]pyrimidine-2,7(1H,4H)-dione]",20 to 250

# System: cGAS/STING pathway in THP1 cells
# Experiment: THP1 cell-based cGAS/STING pathway activity assay (IRF-3-linked luciferase reporter)
# Details: Homo sapiens, THP-1
# Description: A cellular assay can be used to assess the compounds of the invention for their ability to inhibit the cGAS/STING pathway. Cells that express a luciferase-based reporter that is linked to IRF-3 activation are used to determine response as a function of compound concentration. Such an assay is described in Vincent et al., Nature Communications 2017, 8(1):750, doi: 10.1038/s41467-017-00833-9.
# A cellular assay can be used to assess the compounds of the invention for their ability to inhibit the cGAS/STING pathway. Cells that express a luciferase-based reporter that is linked to IRF-3 activation are used to determine response as a function of compound concentration. Such an assay is described in Vincent et al., Nature Communications 2017, 8(1):750, doi: 10.1038/s41467-017-00833-9. Compounds of the invention were assessed using similar assay methods in a THP1 cell assay to generate IC50 values as provided in the following Table 16. In this table, activity level “A” indicates an IC50 value less than 20 μM, “B” indicates an IC50 value between 20 and 100 μM, and “C” indicates an IC50 value above the upper limit of the assay (100 μM), or where an IC50 value could not be generated from the data.
row,SMILES,IC50 [µM]
1,"CCc1cccc2oc(-c3c(C)[nH]c4c(-c5ccccc5)c(C(F)(F)F)nn4c3=O)nc12 [Compound C1046, 6-(4-ethylbenzo[d]oxazol-2-yl)-5-methyl-3-phenyl-2-(trifluoromethyl)pyrazolo[1,5-a]pyrimidin-7(4H)-one]",< 20
2,"Cc1[nH]c2c(-c3ccccc3)c(C(F)(F)F)nn2c(=O)c1-c1nnc(-c2ccco2)o1 [Compound D1007, 6-(5-(furan-2-yl)-1,3,4-oxadiazol-2-yl)-5-methyl-3-phenyl-2-(trifluoromethyl)pyrazolo[1,5-a]pyrimidin-7(4H)-one]",20 to 100
3,"COc1cccc(NC(=O)c2c(C)[nH]c3c(-c4ccccc4)c(C(F)(F)F)nn3c2=O)c1 [Compound A1032, N-(3-methoxyphenyl)-5-methyl-7-oxo-3-phenyl-2-(trifluoromethyl)-4,7-dihydropyrazolo[1,5-a]pyrimidine-6-carboxamide]",< 20
4,"COCCOCc1[nH]c2c(-c3ccccc3)c(C#N)nn2c(=O)c1-c1nc2c(OC)cccc2o1 [Compound C1243, 6-(4-methoxybenzo[d]oxazol-2-yl)-5-((2-methoxyethoxy)methyl)-7-oxo-3-phenyl-4,7-dihydropyrazolo[1,5-a]pyrimidine-2-carbonitrile]",< 20
